Experiments:
Alternaria brassicae = experiment: In vivo preventive test on Alternaria brassicae (leaf spot on radish or cabbage); settings: 500 ppm of active ingredient, preventive spray on radish or cabbage, evaluated 3 to 4 days after inoculation, read-out: efficacy
In short: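 Young radish or cabbage plants were sprayed with compound dissolved in DMSO/acetone/Tween 80 and diluted in water; controls received solvent only. Inoculation by spraying A. brassicae spore suspension 24 h later, then 3–4 days at 20 °C and 100% relative humidity.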

Botrytis cinerea [1] = experiment: In vivo preventive test on Botrytis cinerea (grey mould); settings: 500 ppm of active ingredient, preventive spray on gherkin or cabbage, evaluated 4 to 5 days after inoculation, read-out: efficacy
In short: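 Young gherkin or cabbage plants were sprayed with compound in DMSO/acetone/Tween 80 diluted in water, then inoculated 24 hours later with a B. cinerea spore suspension. Incubation lasted 4 to 5 days: gherkin at 17° C., 90% relative humidity; cabbage at 20° C., 100% relative humidity.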

Sphaerotheca fuliginea = experiment: In vivo preventive test on Sphaerotheca fuliginea (powdery mildew on cucurbits); settings: Podosphaera fuliginea, 192 h; 500 ppm of active ingredient; preventive spray on gherkin; evaluated 8 days after inoculation; read-out: efficacy
In short: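 Young gherkin plants were sprayed with compound in DMSO/acetone/Tween 80 diluted in water. They were inoculated 24 h later with a spore suspension of Sphaerotheca fuliginea. Plants were then kept for 8 days at 20 °C and 70–80% relative humidity.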

[2] = test system: Colletotrichum lindemuthianum; experiment: In vivo preventive test on Colletotrichum lindemuthianum (leaf spot on bean); settings: 168 h, 500 ppm of active ingredient, preventive spray on bean, evaluated 7 days after inoculation, read-out: efficacy
In short: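 Young bean plants sprayed with compound in DMSO/acetone/Tween 80 diluted in water; solvent-only controls. Inoculated 24 h later with C. lindemuthianum spore suspension, then kept 24 h at 20 °C/100% RH and 6 days at 20 °C/90% RH.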

[3] = test system: Colletotrichum lindemuthianum; experiment: B-8. Colletotrichum lindemuthianum in vitro cell test; type: cell-based; settings: 144 h, 20 ppm of active ingredient, 6 days incubation, liquid culture, absorbance, read-out: efficacy (inhibition of fungal growth)
In short: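 Spore suspension of C. lindemuthianum in liquid medium exposed to DMSO-solubilized compounds (final DMSO ≤1%) for 6 days. Mycelial growth read by absorbance, with inhibition calculated relative to compound-free control wells.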

Septoria tritici = experiment: B-9. Septoria tritici in vitro cell test; type: cell-based; settings: Zymoseptoria tritici, 168 h; 20 ppm of active ingredient; 7 days incubation; liquid culture, absorbance; read-out: efficacy (inhibition of fungal growth)
In short: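 Compounds from DMSO stocks (final DMSO ≤1%) were added to liquid medium containing S. tritici spores to test inhibition of germination and mycelial growth. After 7 days, mycelium growth was read spectrometrically and inhibition derived from absorbance versus fungicide-free control wells.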

Pyrenophora teres = experiment: B-10. Pyrenophora teres in vitro cell test; type: cell-based; settings: 144 h, 20 ppm of active ingredient, 6 days incubation, liquid culture, absorbance, read-out: efficacy (inhibition of fungal growth)
In short: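 Liquid-culture assay on a P. teres spore suspension with compounds added to the medium from DMSO solutions, final DMSO ≤1%. Mycelium growth read spectrometrically after 6 days. Inhibition calculated from absorbance against untreated control wells.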

Botrytis cinerea [4] = experiment: B-11. Botrytis cinerea in vitro cell test; type: cell-based; settings: 144 h, 20 ppm of active ingredient, 6 days incubation, liquid culture, absorbance, read-out: efficacy (inhibition of fungal growth)
In short: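 B. cinerea spores were grown in liquid culture with compound (DMSO ≤1% final). Mycelium growth was measured spectrometrically after 6 days, with inhibition taken as absorbance relative to untreated control wells.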

SMILES	pest or weed control at 500 ppm (Alternaria brassicae)	pest or weed control at 500 ppm (Botrytis cinerea [1])	pest or weed control at 500 ppm (Sphaerotheca fuliginea)	pest or weed control at 500 ppm [2]	inhibition at 20 ppm [3]	inhibition at 20 ppm (Septoria tritici)	inhibition at 20 ppm (Pyrenophora teres)	inhibition at 20 ppm (Botrytis cinerea [4])
Cc1ccc(C(F)(F)CNC(=O)c2c(Oc3cccc(C(F)F)c3)nnc3c2CCCC3)c(C)c1 [I-129]	90 to 100%	90 to 100%	90 to 100%	90 to 100%	90 to 100%	90 to 100%	90 to 100%	90 to 100%
Cc1cccc(Oc2cnc3ccccc3c2C(=O)NCC(F)(F)c2ccc(C)cc2C)c1 [I-222]	90 to 100%	90 to 100%	90 to 100%	70 to 79%	90 to 100%	80 to 89%	90 to 100%	90 to 100%
O=C(NCC(F)(F)c1ccc(Br)cc1Cl)c1c(Oc2cccc(Cl)c2F)nnc2c1CCC2 [I-213]	90 to 100%	90 to 100%	90 to 100%	90 to 100%	90 to 100%	90 to 100%	90 to 100%	90 to 100%
Cc1cc(Cl)ccc1C(F)(F)CNC(=O)c1c(Oc2cccc(Cl)c2)nnc2c1CCCC2 [I-146]	90 to 100%	90 to 100%	90 to 100%	90 to 100%	70 to 79%	90 to 100%	90 to 100%	90 to 100%
O=C(NCC(F)(F)c1ccc(Cl)cc1Cl)c1c(Oc2cccc(C(F)(F)F)c2)nnc2c1COCC2 [I-228]	90 to 100%	90 to 100%	90 to 100%	90 to 100%	90 to 100%	90 to 100%	90 to 100%	90 to 100%
Cc1ccc(C(F)(F)CNC(=O)c2c(Oc3cccc(C4CC4)c3F)nnc3c2CCCC3)c(C)c1 [I-131]	90 to 100%	90 to 100%	90 to 100%	90 to 100%	90 to 100%	90 to 100%	90 to 100%	90 to 100%
O=C(NCC(F)(F)c1ccc(Br)cc1Cl)c1c(Oc2cccc(C(F)(F)F)c2)nnc2c1CCC2 [I-212]	90 to 100%	90 to 100%	90 to 100%	90 to 100%	90 to 100%	90 to 100%	90 to 100%	90 to 100%
O=C(NC[C@H](F)c1ccc(Cl)cc1Cl)c1c(Oc2cccc(C3CC3)c2F)nnc2ccccc12 (racemic) [I-072]	90 to 100%	90 to 100%	90 to 100%	90 to 100%	90 to 100%	90 to 100%	90 to 100%	90 to 100%

From patent US20230192617A1, “AZABICYCLIC(THIO)AMIDES AS FUNGICIDAL COMPOUNDS” (Bayer CropScience Aktiengesellschaft, priority 2020, published 2023)
